Reference: EP0745595A1, “3-(3-Aryloxyphenyl)-1-(substituted methyl)-s-triazine-2,4,6-oxo or thiotrione herbicidal agents” (American Cyanamid Company, priority 1995, dated 1996)

Tests used:
Type in all cases: in vivo
[1] = tested on: SETARIA VIRIDIS, (L) BEAU; assay: Postemergence herbicidal evaluation, SETVI (Foxtail, Green); design: key to SETVI rating / Herbicidal effect rating, SETVI / SETVI: 0-9 visual rating scale vs untreated control; conditions: for SETVI, herbicide rating (0-9): rated four to five weeks after treatment, averaged
Procedure, shortened: (§1)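 Spray: acetone/water 50/50 + 0.5% TWEEN 20; rate ~0.125–0.500 kg/ha; nozzle 40 psi; ~2-wk seedlings. Read: visual 0–9 rating at 4–5 wk post-treatment vs control; replicate tests averaged.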

[2] = tested on: AMBROSIA ARTEMISIIFOLIA, L.; assay: Postemergence herbicidal evaluation, AMBEL (Ragweed, Common);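 as to AMBEL: higher means more injury with 8 approaching complete kill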
Procedure, shortened: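 Postemergence herbicidal activity on AMBEL (common ragweed) was assessed on two-week-old seedlings grown in jiffy flats. Treatment solutions of 50/50 acetone/water with 0.5% TWEEN®20 surfactant were sprayed at 40 psi. After four to five weeks in the greenhouse, plants were scored 0-9 against a control for stand, vigor, malformation, size, chlorosis and overall appearance, with multiple tests averaged.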

[3] = tested on: CHENOPODIUM ALBUM, L.; assay: Postemergence herbicidal evaluation, CHEAL (Lambsquarters, Common);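 as to CHEAL: higher means more injury with 8 approaching complete kill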
Procedure, shortened: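 Postemergence herbicidal activity on Chenopodium album was tested by spraying two-week-old seedlings grown in jiffy flats with compound in acetone/water (50/50) plus 0.5% TWEEN®20, using a 40 psi nozzle. Four to five weeks after treatment, stand, vigor, malformation, size, chlorosis and overall appearance were scored 0-9 relative to controls, with repeat tests averaged.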

[4] = tested on: ECHINOCHLOA CRUS-GALLI, (L) BEAU; assay: Postemergence herbicidal evaluation, ECHCG (Barnyardgrass); design: key to ECHCG rating / Herbicidal effect rating, ECHCG / ECHCG: 0-9 visual rating scale vs untreated control
Procedure, shortened: as §1

[5] = tested on: GALIUM APARINE; assay: Postemergence herbicidal evaluation, GALAP (Galium); design: key to GALAP rating / Herbicidal effect rating, GALAP / GALAP: 0-9 visual rating scale vs untreated control; conditions: for GALAP, herbicide rating (0-9): rated four to five weeks after treatment, averaged
Procedure, shortened: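 In this postemergence greenhouse test, two-week-old Galium aparine seedlings grown in jiffy flats received a 40 psi spray of compound in acetone/water (50/50) with 0.5% TWEEN®20 surfactant. After four to five weeks, stand, vigor, malformation, size, chlorosis and overall appearance were compared with untreated controls on a 0-9 scale, averaging multiple tests.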

[6] = tested on: ZEA MAYS L.; assay: Postemergence herbicidal evaluation, ZEAMX (Corn, Field);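 as to ZEAMX: higher means more injury with 8 approaching complete kill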
Procedure, shortened: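 This greenhouse postemergence test treated corn plants about two weeks old. Compounds in a 50/50 acetone/water mixture with 0.5% TWEEN®20 were applied through a spray nozzle at 40 psi. After four to five weeks, injury was scored 0-9 against an untreated control, judging stand, vigor, malformation, size, chlorosis and overall appearance. Repeated tests were averaged.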

[7] = tested on: IPOMOEA SPP.; assay: Postemergence herbicidal evaluation, IPOSS (Morningglory spp.);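 as to IPOSS: higher means more injury with 8 approaching complete kill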
Procedure, shortened: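 In this greenhouse postemergence herbicide test on Ipomoea spp. (morningglory), compounds in 50/50 acetone/water with 0.5% TWEEN®20 were sprayed at 40 psi onto seedlings about two weeks old grown in jiffy flats. After four to five weeks, injury was scored on a 0-9 scale covering stand, vigor, malformation, size, chlorosis and overall appearance versus control, with repeat tests averaged.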

[8] = tested on: ABUTILON THEOPHRASTI, MEDIC.; assay: Postemergence herbicidal evaluation, ABUTH (Velvetleaf); conditions: for ABUTH, herbicide rating (0-9): rated four to five weeks after treatment, averaged
Procedure, shortened: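 This postemergence herbicide test used two-week-old velvetleaf seedlings grown in jiffy flats. Each compound was sprayed at 40 psi as a dispersion in 50/50 acetone/water with 0.5% TWEEN®20 surfactant. Plants then received routine greenhouse care. After four to five weeks, injury was scored visually on a 0-9 scale against a control, and replicate tests were averaged.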

[9] = tested on: CHENOPODIUM ALBUM, L.; assay: Preemergence herbicidal evaluation, CHEAL (Lambsquarters, Common); conditions: for CHEAL rating: four to five weeks after treatment
Procedure, shortened: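 Injury scored visually (0–9; stand, vigor, malformation, size, chlorosis) versus untreated control, four to five weeks post-treatment. Application: aqueous acetone spray onto freshly planted soil cups, equivalent to about 0.125 to 0.50 kg/ha, plants then kept under standard greenhouse care.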

[10] = tested on: ORYZA SATIVA, L. TEBONNET; assay: Rice tolerance to post-transplant applications under flooded paddy conditions, ORYSAT (Rice, Tebonnet); conditions: for ORYSAT herbicidal rating (rice tolerance): post-transplant rice, rated three to four weeks after treatment; for ORYSAT: post-transplanted rice;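 as to ORYSAT herbicidal rating (rice tolerance): applied to flooded soil surface three days after transplanting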
Procedure, shortened: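 Greenhouse pots of silt loam, each with two transplanted ten-day-old seedlings, are held under 1.5 to 3 cm of standing water. Three days later the compound is applied to the flooded surface at about 0.5, 0.25, 0.125 or 0.063 kg/ha. Damage is scored visually 0-9 after 3-4 weeks.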

[11] = tested on: TRITICUM AESTIVUM, CV. APOLLO; assay: Postemergence herbicidal evaluation, TRZAWO (Wheat, Winter, CV. APOLLO);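 as to TRZAWO: higher means more injury with 8 approaching complete kill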
Procedure, shortened: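 This greenhouse postemergence test applied compounds to roughly two-week-old wheat seedlings grown in jiffy flats. The spray solution was 50/50 acetone/water with 0.5% TWEEN®20, a polyoxyethylene sorbitan monolaurate, sprayed from a nozzle run at 40 psi. After four to five weeks of standard greenhouse care, injury was scored from 0 to 9 by comparing stand, vigor, malformation, size, chlorosis and overall appearance with a control. Multiple tests were averaged.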

COC(=O)Cn1c(=O)n(C)c(=O)n(-c2cc(Oc3c(F)cc(C(F)(F)F)cc3Cl)ccc2Br)c1=O [Compound 2, Methyl 3-{2-bromo-5-[(2-chloro-α,α,α,6-tetrafluoro-p-tolyl)oxy]phenyl}tetrahydro-5-methyl-2,4,6-trioxo-s-triazine-1(2H)-acetate]
5.5: ORYSAT herbicidal rating (rice tolerance) ([10]; Rate 0.250 kg/ha)
7.5: Herbicidal effect rating, SETVI ([1]; 0.063 kg/ha) | Herbicidal effect rating, AMBEL ([2]; 0.250 kg/ha) | Herbicidal effect rating, TRZAWO ([11]; 0.125 kg/ha)
8.8: Herbicidal effect rating, CHEAL ([3]; 0.063 kg/ha) | Herbicidal effect rating, ABUTH ([8]; 0.063 kg/ha)
4.0: ORYSAT herbicidal rating (rice tolerance) ([10]; Rate 0.125 kg/ha)
8.3: Herbicidal effect rating, ZEAMX ([6]; 0.250 kg/ha) | Herbicidal effect rating, ZEAMX ([6]; 0.500 kg/ha) | Herbicidal effect rating, IPOSS ([7]; 0.063 kg/ha)
2.5: ORYSAT herbicidal rating (rice tolerance) ([10]; Rate 0.063 kg/ha)
8.4: Herbicidal effect rating, ZEAMX ([6]; 0.125 kg/ha)
6.7: Herbicidal effect rating, ECHCG ([4]; 0.125 kg/ha) | ORYSAT herbicidal rating (rice tolerance) ([10]; Rate 0.500 kg/ha)
8.0: Herbicidal effect rating, AMBEL ([2]; 0.063 kg/ha) | Herbicidal effect rating, AMBEL ([2]; 0.500 kg/ha) | Herbicidal effect rating, TRZAWO ([11]; 0.250 kg/ha)
7.0: Herbicidal effect rating, TRZAWO ([11]; 0.063 kg/ha)
7.3: Herbicidal effect rating, AMBEL ([2]; 0.125 kg/ha)
5.0: Herbicidal effect rating, ECHCG ([4]; 0.063 kg/ha)
7.7: Herbicidal effect rating, ZEAMX ([6]; 0.063 kg/ha)
8.5: Herbicidal effect rating, CHEAL ([3]; 0.250 kg/ha) | Herbicidal effect rating, CHEAL ([3]; 0.500 kg/ha) | Herbicidal effect rating, TRZAWO ([11]; 0.500 kg/ha)
8.7: Herbicidal effect rating, CHEAL ([3]; 0.125 kg/ha) | Herbicidal effect rating, IPOSS ([7]; 0.125 kg/ha)
9.0: Herbicidal effect rating, SETVI ([1]; 0.125 kg/ha) | Herbicidal effect rating, SETVI ([1]; 0.250 kg/ha) | Herbicidal effect rating, SETVI ([1]; 0.500 kg/ha) | SETVI, herbicide rating (0-9) ([1]; Rate 0.125 kg/ha) | SETVI, herbicide rating (0-9) ([1]; Rate 0.250 kg/ha) | SETVI, herbicide rating (0-9) ([1]; Rate 0.500 kg/ha) | Herbicidal effect rating, ECHCG ([4]; 0.250 kg/ha) | Herbicidal effect rating, ECHCG ([4]; 0.500 kg/ha) | Herbicidal effect rating, GALAP ([5]; 0.063 kg/ha) | Herbicidal effect rating, GALAP ([5]; 0.125 kg/ha) | Herbicidal effect rating, GALAP ([5]; 0.250 kg/ha) | Herbicidal effect rating, GALAP ([5]; 0.500 kg/ha) | GALAP, herbicide rating (0-9) ([5]; Rate 0.125 kg/ha) | GALAP, herbicide rating (0-9) ([5]; Rate 0.250 kg/ha) | GALAP, herbicide rating (0-9) ([5]; Rate 0.500 kg/ha) | Herbicidal effect rating, IPOSS ([7]; 0.250 kg/ha) | Herbicidal effect rating, IPOSS ([7]; 0.500 kg/ha) | Herbicidal effect rating, ABUTH ([8]; 0.125 kg/ha) | Herbicidal effect rating, ABUTH ([8]; 0.250 kg/ha) | Herbicidal effect rating, ABUTH ([8]; 0.500 kg/ha) | ABUTH, herbicide rating (0-9) ([8]; Rate 0.125 kg/ha) | ABUTH, herbicide rating (0-9) ([8]; Rate 0.250 kg/ha) | ABUTH, herbicide rating (0-9) ([8]; Rate 0.500 kg/ha) | CHEAL ([9]; Rate 0.063 kg/ha) | CHEAL ([9]; Rate 0.125 kg/ha) | CHEAL rating ([9]; Rate 0.125 kg/ha) | CHEAL ([9]; Rate 0.250 kg/ha) | CHEAL rating ([9]; Rate 0.250 kg/ha) | CHEAL ([9]; Rate 0.500 kg/ha) | CHEAL rating ([9]; Rate 0.500 kg/ha)

Cn1c(=O)[nH]c(=O)n(-c2cccc(Oc3ccc(C(F)(F)F)cc3Cl)c2)c1=O [E, reference compound]
5.0: AMBEL ([2]; Rate 0.500 kg/ha) | GALAP ([5]; Rate 0.250 kg/ha) | IPOSS ([7]; Rate 0.063 kg/ha) | IPOSS ([7]; Rate 0.125 kg/ha) | IPOSS ([7]; Rate 0.250 kg/ha) | ABUTH ([8]; Rate 0.125 kg/ha) | ABUTH ([8]; Rate 0.250 kg/ha)
1.0: SETVI ([1]; Rate 0.250 kg/ha) | ECHCG ([4]; Rate 0.250 kg/ha) | TRZAWO ([11]; Rate 0.063 kg/ha) | TRZAWO ([11]; Rate 0.125 kg/ha) | TRZAWO ([11]; Rate 0.250 kg/ha)
7.0: CHEAL ([3]; Rate 0.063 kg/ha) | CHEAL ([3]; Rate 0.125 kg/ha)
2.5: GALAP ([5]; Rate 0.500 kg/ha) | ZEAMX ([6]; Rate 0.500 kg/ha)
1.5: ZEAMX ([6]; Rate 0.063 kg/ha) | ZEAMX ([6]; Rate 0.125 kg/ha) | ZEAMX ([6]; Rate 0.250 kg/ha) | TRZAWO ([11]; Rate 0.500 kg/ha)
0.0: SETVI ([1]; Rate 0.063 kg/ha) | SETVI ([1]; Rate 0.125 kg/ha) | ECHCG ([4]; Rate 0.063 kg/ha) | ECHCG ([4]; Rate 0.125 kg/ha) | ORYSAT ([10]; Rate 0.250 kg/ha) | ORYSAT ([10]; Rate 0.500 kg/ha) | ORYSAT ([10]; Rate 1.000 kg/ha)
2.0: SETVI ([1]; Rate 0.500 kg/ha) | AMBEL ([2]; Rate 0.063 kg/ha) | AMBEL ([2]; Rate 0.125 kg/ha)
3.0: ECHCG ([4]; Rate 0.500 kg/ha) | GALAP ([5]; Rate 0.063 kg/ha)
6.0: IPOSS ([7]; Rate 0.500 kg/ha) | ABUTH ([8]; Rate 0.500 kg/ha)
4.0: AMBEL ([2]; Rate 0.250 kg/ha) | GALAP ([5]; Rate 0.125 kg/ha) | ABUTH ([8]; Rate 0.063 kg/ha)
8.0: CHEAL ([3]; Rate 0.250 kg/ha) | CHEAL ([3]; Rate 0.500 kg/ha)
